Key:
[1] = molecular target: T1, mouse Mfsd2a (Mus musculus, UniProt Q9DA75); assay: In vitro transport (uptake) of radiolabeled and fluorescent LPCs in HEK293 cells overexpressing Mfsd2a; assay type: cell-based
T1 construct: expressed in transfected cells; host or cells: HEK293
T1 sequence (Q9DA75 1-534): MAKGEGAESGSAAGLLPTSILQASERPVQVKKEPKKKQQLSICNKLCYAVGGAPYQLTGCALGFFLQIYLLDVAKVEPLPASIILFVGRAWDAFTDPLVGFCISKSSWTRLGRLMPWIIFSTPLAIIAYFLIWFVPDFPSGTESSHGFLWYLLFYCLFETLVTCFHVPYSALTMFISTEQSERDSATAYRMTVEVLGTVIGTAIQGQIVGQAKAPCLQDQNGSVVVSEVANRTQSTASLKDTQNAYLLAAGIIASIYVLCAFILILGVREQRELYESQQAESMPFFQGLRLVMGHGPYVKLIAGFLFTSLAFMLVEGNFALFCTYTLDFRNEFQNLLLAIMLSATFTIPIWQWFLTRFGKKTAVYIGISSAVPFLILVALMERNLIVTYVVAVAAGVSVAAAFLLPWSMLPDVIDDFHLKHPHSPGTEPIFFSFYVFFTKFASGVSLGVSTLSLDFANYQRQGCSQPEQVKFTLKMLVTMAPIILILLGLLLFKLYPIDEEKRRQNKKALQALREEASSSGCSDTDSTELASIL
Method: Uptake assays of radiolabeled LPCs or fluorescent LPCs were tested using HEK293 cells overexpressing Mfsd2a and mutants constructs. Briefly, HEK293 cells at 90-95% confluency were transfected using LIPOFECTAMINE 2000 (Invitrogen) with pcDNA3.1Mfsd2a (WT), pcDNA3.1Mfsd2aD92A (D92A), pcDNA3.1Mfsd2aD96A (D96A), or pcDNA3.1 (mock) plasmids. Uptake assays were performed after 24 hours of transfections. Prior to ligand incubation, HEK293 transfected cells were washed with serum-free DMEM before assays. For concentration and time dependent assays, radiolabeled LPCs were diluted in pre-warmed DMEM media. For sodium dependent assay, radiolabeled LPCs were diluted in transport buffer (5 mM KCl, 10 mM Hepes, pH 7.4) with 150 mM NaCl or 150 mM choline chloride. For sodium concentration dependent assays, any reductions in the concentration of NaCl were replaced by choline chloride in order to maintain a constant cation molarity of 150 mM. All assays were performed in 12 well-plates with triplicates and at 37° C.

[2] = molecular target: T1, mouse Mfsd2a; assay: TLC analysis of phospholipids (bio-incorporation of LPC into PC); assay type: cell-based; conditions: TLC
Method: HEK293 cells overexpressing with pcDNA3.1Mfsd2a (WT), pcDNA3.1Mfsd2aD92A (D92A), pcDNA3.1Mfsd2aD96A, or pcDNA3.1 (mock) plasmids or human Mfsd2a (in Sport6 plasmid) were washed once with serum-free DMEM medium before incubation with 50 μM radiolabeled LPC [^14C]oleate, LPC [^14C]DHA or with 50 μM TopFluor-LPC and NBD-LPC. Lipids were extracted twice with HIP buffer for 30 mins. Lipids were dried with nitrogen stream and reconstituted in chloroform and spotted on TLC plates (Milipore). Solvent for phospholipid separation was chloroform/methanol/ammonia solution (25%) (50:25:6, per volume). TLC plates of radiolabeled phospholipids were dried for 30 mins and exposed overnight to Phosphorscreens and scanned with Typhoon FLA 9000 scanner (Agilent). TLC plates of fluorescent phospholipids were scanned with Typhoon FLA 9000 scanner and quantified using Imagequant software.

[3] = Blood LPC [14C]-oleate analysis; assay type: in vivo, mice; conditions: intravenous, 2 hrs post-injection
Method: Mfsd2a KO and WT mice were injected intravenously with 100 μM radioactive labeled LPC [^14C]-oleate. 10 μl of blood samples were collected after 2 min (initial dose) and after 2 hr from tail vein, and radioactivity was quantified by scintillation counting. The amount of plasma LPC [^14C]-oleate in the KO mice was expressed as ratio to the WT at each time point.

[4] = molecular target: T2, Mfsd2a (Mus musculus, UniProt Q9DA75); assay: In vivo transport of radiolabeled, fluorescent LPCs and unesterified DHA in Mfsd2a KO and wild-type mice; parameters: from tissue; host or cells: living mice; brain (blood-brain barrier endothelium), liver, heart; fetal brain; conditions: i.v. injection, 2 hrs post-injection, radiolabel
T2 sequence (Q9DA75 1-534): T1 sequence (Q9DA75 1-534)
Method: Male and female mice of age of 6-8 weeks were IV injected with 75 μl of 20 mM radiolabeled LPC-[…], 100 μl of 10 mM LPC-[^14C]DHA/BSA complex or 82 μl of 12.2 mM [^14C]DHA/BSA complex in a total volume of 150 μl of phosphate-buffered saline. At 2 hours post injection, mice were anesthetized and perfused for 5 mins with PBS containing 0.5% BSA in order to remove blood and lipid tracer bound to the brain vasculature. Tissues were harvested for lipid extraction. For lipid extraction, tissues were weighed and similar amounts of tissues were homogenized in chloroform/methanol. Lipids from the organic phase were mixed with scintillant and scintillation counted. Similar experiments were also performed with an injection of 300 μg NBD-LPC/BSA or 300 μg TopFluor-LPC/BSA complex per mouse. In this experiment, mice were perfused for 5 mins with PBS followed 15 mins perfusion with 4% paraformaldehyde (PFA) for tissue fixation. Brain sections of WT and KO with a thickness of 40 μm were prepared and scanned using green fluorescence mode in Typhoon FLA 9000 scanner (Agilent). NBD-LPC accumulation was expressed as fluorescence of each section per its area. Dietary DHA transport from mother to fetus was also measured using [^14C]DHA/BSA complex. Pregnant females at e18.5 was gavaged with bolus of [^14C]DHA/BSA complex (200 μl of 10 mM [^14C]DHA/BSA/mouse). Brain of fetuses were collected 20 hours post-gavage and weighed. Lipid extraction and radioactivity were performed as described above.

SMILES: CCCCCCCCC=CCCCCCCCC(=O)OC[C@@H](O)COP(=O)([O-])OCC[N+](C)(C)C [LPC-[^14C]oleate, 1-oleoyl 2-lysophosphocholine]
- comparison of Mfsd2a-mediated uptake (capacity to transport) ([1]; HEK293 cells expressing Mfsd2a): highest capacity to transport LPC-DHA, followed by LPC-oleate, and LPC-palmitate
- uptake of radiolabeled LPC by cells expressing Mfsd2a relative to control cells ([1]; HEK293 cells, wild-type Mfsd2a vs mock, LPC/BSA, 30 mins): concentration-dependent uptake
- net uptake of LPC ligand (PC mass) ([2]; 100 μM unlabeled LPC-oleate, 1 hour): Increased net uptake
- conversion of transported LPCs into PCs ([2]; HEK293 cells expressing Mfsd2a, radiolabeled LPC): rapid conversion of transported LPCs into PCs
- plasma level of injected tracer in KO mice relative to WT [3]: increased levels
- brain uptake in KO mice relative to wild-type [4]: markedly reduced

Source: patent US10175256B2, “Compositions and methods utilizing lysophosphatidylcholine scaffolds” (National University Of Singapore, priority 2013, dated 2019)
